Laboratory results: ChEMBL document CHEMBL1201862, “PubChem BioAssay data set” (2004)
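Cultured in 96-well plates, cells were exposed to test compound for 48 hours across five concentrations. Abbreviation: GI50, concentration required for 50% inhibition of growth.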 The source made the active and inactive calls. No stated cut-off is given here; in the data, active = GI50 up to about 1.1 µM and inactive = higher.

Columns and labels:
Test in all cases: NCI-60 cell line screen, 48 h
[1] = test system: COLO 205
[2] = test system: SF-295
[3] = test system: HCT-15
[4] = test system: HOP-92
[5] = test system: A498
[6] = test system: SK-OV-3
[7] = test system: OVCAR-4
[8] = test system: LOX IMVI
[9] = test system: OVCAR-5
[10] = test system: NCI-H460
[11] = test system: SN12C
[12] = test system: RPMI-8226
[13] = test system: UACC-62
[14] = test system: HT-29
[15] = test system: HCT-116
[16] = test system: OVCAR-8
[17] = test system: DLD-1
[18] = test system: UACC-257
[19] = test system: MCF7
[20] = test system: A549

Compound	GI50 [1]	GI50 [2]	GI50 [3] [µM]	GI50 [4]	GI50 [5]	GI50 [6]	GI50 [7]	GI50 [8]	GI50 [9]	GI50 [10]	GI50 [11]	GI50 [12]	GI50 [13]	GI50 [14]	GI50 [15]	GI50 [16]	GI50 [17]	GI50 [18]	GI50 [19]	GI50 [20]
COc1cc(O)c(Cc2ccccc2O)c(O)c1C(=O)CCc1ccccc1 [UVARETIN]	5.92 µM (inactive)	5.9 µM (inactive)	5.71	3.99 µM (inactive)	1.48 µM (inactive)	6.15 µM (inactive)	6.55 µM (inactive)	6.05 µM (inactive)	4.6 µM (inactive)	4.49 µM (inactive)	4.82 µM (inactive)	2.44 µM (inactive)	4.4 µM (inactive)	11.9 µM (inactive)	4.31 µM (inactive)	6.41 µM (inactive)	7.33 µM (inactive)	5.36 µM (inactive)	5.81 µM (inactive)	5.92 µM (inactive)
CNC(=S)N/N=C(/C)CCC/C(C)=N/NC(=S)NC	0.308 µM (active)	> 100 µM (inactive)	11	> 100 µM (inactive)	> 75 µM (inactive)	> 100 µM (inactive)	1.69 µM (inactive)	1.8 µM (inactive)	1 µM (active)	> 56.9 µM (inactive)	> 74.5 µM (inactive)	5.61 µM (inactive)	> 58.2 µM (inactive)	0.499 µM (active)	–	57.4 µM (inactive)	–	> 100 µM (inactive)	0.151 µM (active)	5.45 µM (inactive)
CSc1nc(NC2OC(CO)C(O)C(O)C2O)c(N)c(=O)n1C (stereo not given)	> 100 µM (inactive)	> 100 µM (inactive)	> 100	> 100 µM (inactive)	> 100 µM (inactive)	> 100 µM (inactive)	> 100 µM (inactive)	> 100 µM (inactive)	> 100 µM (inactive)	> 100 µM (inactive)	> 100 µM (inactive)	> 100 µM (inactive)	> 100 µM (inactive)	> 100 µM (inactive)	> 100 µM (inactive)	> 100 µM (inactive)	> 100 µM (inactive)	> 100 µM (inactive)	> 100 µM (inactive)	> 100 µM (inactive)
CC(=O)C(=O)NC1/C=C(C)\C=C/C(O)C/C=C(C)\C=C/C(O)CC2OC(=O)C1(C)C(=O)C2C (stereo not given)	> 62.2 µM (inactive)	> 100 µM (inactive)	> 100	> 100 µM (inactive)	> 100 µM (inactive)	> 100 µM (inactive)	> 100 µM (inactive)	> 100 µM (inactive)	> 100 µM (inactive)	> 100 µM (inactive)	> 100 µM (inactive)	> 55.1 µM (inactive)	> 100 µM (inactive)	> 100 µM (inactive)	> 100 µM (inactive)	> 100 µM (inactive)	> 100 µM (inactive)	> 100 µM (inactive)	> 100 µM (inactive)	> 100 µM (inactive)
C[n+]1ccc(Nc2ccc(NC(=O)c3ccc(Nc4cc[n+](C)c5ccc([N+](=O)[O-])cc45)cc3[N+](=O)[O-])cc2)cc1	14 µM (inactive)	30.4 µM (inactive)	44.8	22.8 µM (inactive)	36.7 µM (inactive)	60.3 µM (inactive)	51.2 µM (inactive)	> 68.2 µM (inactive)	–	25.7 µM (inactive)	57.4 µM (inactive)	24 µM (inactive)	26.1 µM (inactive)	–	31.1 µM (inactive)	31.7 µM (inactive)	> 92 µM (inactive)	24.3 µM (inactive)	–	22.5 µM (inactive)
CO/N=C1/c2sccc2[C@H](NC(=O)C(Cc2ccccc2)NC(=O)OC(C)(C)C)[C@@H]1O (stereo not given in full)	> 100 µM (inactive)	> 100 µM (inactive)	> 100	> 100 µM (inactive)	> 100 µM (inactive)	> 100 µM (inactive)	45.6 µM (inactive)	> 100 µM (inactive)	> 100 µM (inactive)	> 100 µM (inactive)	> 100 µM (inactive)	–	> 100 µM (inactive)	> 100 µM (inactive)	> 100 µM (inactive)	> 100 µM (inactive)	–	> 100 µM (inactive)	> 100 µM (inactive)	> 100 µM (inactive)
Cc1cc(C)c2c(c1)CC1(Cc3c(C)ccc(C)c3C1=O)C2=O (stereo not given)	> 100 µM (inactive)	> 100 µM (inactive)	> 100	> 100 µM (inactive)	> 100 µM (inactive)	–	> 100 µM (inactive)	–	> 100 µM (inactive)	> 100 µM (inactive)	> 100 µM (inactive)	> 100 µM (inactive)	> 100 µM (inactive)	–	–	> 100 µM (inactive)	–	> 100 µM (inactive)	> 100 µM (inactive)	> 100 µM (inactive)
CCC1CN2CCc3cc(OC)c(OC)cc3C2CC1CC1c2cc(OC)c(OC)cc2CCN1C(=O)C(N)Cc1ccccc1.[O-][Cl+3]([O-])([O-])O (stereo not given)	–	2.05 µM (inactive)	1.72	1.19 µM (inactive)	3.24 µM (inactive)	4.65 µM (inactive)	–	0.386 µM (active)	3.08 µM (inactive)	0.538 µM (active)	2.35 µM (inactive)	1.94 µM (inactive)	3.11 µM (inactive)	0.486 µM (active)	0.305 µM (active)	1.97 µM (inactive)	3.38 µM (inactive)	2.35 µM (inactive)	–	1.6 µM (inactive)
CCN(CC)CCCOC(=O)/C=C/c1c(C)[nH]c(=O)[nH]c1=O	> 625 µM (inactive)	525 µM (inactive)	> 625	56.9 µM (inactive)	> 95.1 µM (inactive)	> 625 µM (inactive)	> 394 µM (inactive)	> 625 µM (inactive)	> 625 µM (inactive)	> 625 µM (inactive)	> 243 µM (inactive)	> 625 µM (inactive)	> 625 µM (inactive)	> 394 µM (inactive)	> 625 µM (inactive)	135 µM (inactive)	> 625 µM (inactive)	> 625 µM (inactive)	> 625 µM (inactive)	> 625 µM (inactive)
